Source: patent publication EP0908457B1, “3-(1,2-benzisothiazol- and isoxazol-5-Y1)-2,4(1H,3H)-pyrimidinedione or thione and 3-(1,2-benzisothiazol- and isoxazol-5-y1)-4(3H)-pyrimidinone or thione herbicidal agents” (BASF AKTIENGESELLSCHAFT, priority 1997, dated 1999)

Key:
[1] = test system: Cyperus serotinus, Rottb.; assay: Preemergence weed control under flooded paddy conditions, CYPSE (Flatsedge); format: in vivo; settings: preemergence, rated three to four weeks after treatment
[2] = test system: Echinochloa oryzoides (Ard.) Fritsch.; assay: Preemergence weed control under flooded paddy conditions, ECHORC (Watergrass (Calif.)); format: in vivo; settings: preemergence, flooded paddy, rated three to four weeks after treatment
[3] = test system: Oryza sativa, (L.) Tebonnet; assay: Rice tolerance to post-transplant applications under flooded paddy conditions (Example 187), ORYSAT (Rice, Tebonnet); settings: rated three to four weeks after treatment
Cyperus iria = assay: Preemergence weed control under flooded paddy conditions, CYPIR (Rice Flatsedge); format: in vivo; settings: preemergence, flooded paddy, rated three to four weeks after treatment
Sagittaria pygmaea, L. = assay: Preemergence weed control under flooded paddy conditions, SAGPY (Arrowhead (Pygmaea)); format: in vivo; settings: preemergence, flooded paddy, rated three to four weeks after treatment
[4] = test system: Monochoria vaginalis, Presl.; assay: Preemergence weed control under flooded paddy conditions, MOOVA (Monochoria); format: in vivo; settings: preemergence, flooded paddy, rated three to four weeks after treatment
Also: meaning of each grade not given here.

Structure (SMILES)	herbicidal effect rating, CYPSE ([1]; Rate 0.0320 kg/ha)	herbicidal effect rating, CYPSE ([1]; Rate 0.0620 kg/ha)	herbicidal effect rating, CYPSE ([1]; Rate 0.1250 kg/ha)	herbicidal effect rating, CYPSE ([1]; Rate 0.2500 kg/ha)	herbicidal effect rating, ECHORC ([2]; Rate 0.0320 kg/ha)	herbicidal effect rating, ECHORC ([2]; Rate 0.0620 kg/ha)	herbicidal effect rating, ECHORC ([2]; Rate 0.1250 kg/ha)	herbicidal effect rating, ECHORC ([2]; Rate 0.2500 kg/ha)	herbicidal effect rating ORYSAT ([3]; Rate 0.0320 kg/ha)	herbicidal effect rating ORYSAT ([3]; Rate 0.0620 kg/ha)	herbicidal effect rating ORYSAT ([3]; Rate 0.1250 kg/ha)	herbicidal effect rating ORYSAT ([3]; Rate 0.2500 kg/ha)	herbicidal effect rating, CYPIR (Cyperus iria; Rate 0.0320 kg/ha)	herbicidal effect rating, CYPIR (Cyperus iria; Rate 0.0620 kg/ha)	herbicidal effect rating, CYPIR (Cyperus iria; Rate 0.1250 kg/ha)	herbicidal effect rating, CYPIR (Cyperus iria; Rate 0.2500 kg/ha)	herbicidal effect rating, SAGPY (Sagittaria pygmaea, L.; Rate 0.0320 kg/ha)	herbicidal effect rating, SAGPY (Sagittaria pygmaea, L.; Rate 0.0620 kg/ha)	herbicidal effect rating, SAGPY (Sagittaria pygmaea, L.; Rate 0.1250 kg/ha)	herbicidal effect rating, SAGPY (Sagittaria pygmaea, L.; Rate 0.2500 kg/ha)	further results
Cn1c(C(F)(F)F)cc(=O)n(-c2cc3c(CBr)nsc3cc2F)c1=O [Example 376, 2,4(1H,3H)-Pyrimidinedione, 3-[3-(bromomethyl)-6-fluoro-1,2-benzisothiazol-5-yl]-1-methyl-6-(trifluoromethyl)-]	3.0	4.0	5.5	8.0	3.0	5.5	6.5	9.0	4.0	6.0	6.0	8.5	3.0	8.0	9.0	9.0	8.0	8.5	9.0	9.0	herbicidal effect rating, MOOVA ([4]; Rate 0.0320 kg/ha): 9.0; herbicidal effect rating, MOOVA ([4]; Rate 0.0620 kg/ha): 9.0; herbicidal effect rating, MOOVA ([4]; Rate 0.1250 kg/ha): 9.0; herbicidal effect rating, MOOVA ([4]; Rate 0.2500 kg/ha): 9.0
CCOP(=O)(Cc1nsc2cc(F)c(-n3c(=O)cc(C(F)(F)F)n(C)c3=O)cc12)OCC [Example 377, 1,2-Benzisothiazole-3-methanephosphonic acid, 5-[3,6-dihydro-3-methyl-2,6-dioxo-4-(trifluoromethyl)-1(2H)-pyrimidinyl]-6-fluoro-, diethyl ester]	1.0	3.0	5.0	8.5	2.0	5.0	7.0	9.0	5.5	6.5	8.0	9.0	2.0	3.0	4.5	8.0	0.0	4.0	8.5	9.0	herbicidal effect rating, MOOVA ([4]; Rate 0.0320 kg/ha): 9.0; herbicidal effect rating, MOOVA ([4]; Rate 0.0620 kg/ha): 9.0; herbicidal effect rating, MOOVA ([4]; Rate 0.1250 kg/ha): 9.0; herbicidal effect rating, MOOVA ([4]; Rate 0.2500 kg/ha): 9.0
Cn1c(C(F)(F)F)cc(=O)n(-c2cc3c(CC#N)nsc3cc2F)c1=O [Example 379, 1,2-Benzisothiazole-3-acetonitrile, 5-[3,6-dihydro-3-methyl-2,6-dioxo-4-(trifluoromethyl)-1(2H)-pyrimidinyl]-6-fluoro-]	2.5	6.5	8.5	8.5	2.0	5.0	7.5	8.0	7.0	8.5	9.0	9.0	5.5	7.5	9.0	9.0	3.5	6.5	9.0	9.0	herbicidal effect rating, MOOVA ([4]; Rate 0.0320 kg/ha): 9.0; herbicidal effect rating, MOOVA ([4]; Rate 0.0620 kg/ha): 9.0; herbicidal effect rating, MOOVA ([4]; Rate 0.1250 kg/ha): 9.0; herbicidal effect rating, MOOVA ([4]; Rate 0.2500 kg/ha): 9.0
Cn1c(C(F)(F)F)cc(=O)n(-c2ccc3snc(COS(=O)(=O)c4ccccc4)c3c2)c1=O [Example 382, 2,4(1H,3H)-Pyrimidinedione, 3-[3-(hydroxymethyl)-1,2-benzisothiazol-5-yl]-1-methyl-6-(trifluoromethyl)-, benzenesulfonate (ester)]	0.0	0.0	7.0	7.0	0.0	3.0	4.0	7.0	5.0	6.0	6.0	5.0	5.0	6.0	7.0	9.0	3.0	4.0	7.0	9.0	herbicidal effect rating, MOOVA ([4]; Rate 0.0320 kg/ha): 9.0; herbicidal effect rating, MOOVA ([4]; Rate 0.0620 kg/ha): 9.0; herbicidal effect rating, MOOVA ([4]; Rate 0.1250 kg/ha): 9.0; herbicidal effect rating, MOOVA ([4]; Rate 0.2500 kg/ha): 9.0
CCS(=O)(=O)NC(=O)c1nsc2ccc(-n3c(=O)cc(C(F)(F)F)n(C)c3=O)cc12 [Example 383, 1,2-Benzisothiazole-3-carboxamide, 5-[3,6-dihydro-3-methyl-2,6-dioxo-4-(trifluoromethyl)-1(2H)-pyrimidinyl]-N-(ethylsulfonyl)-]	4.5	5.5	7.5	9.0	4.0	6.5	7.5	8.0	3.5	4.5	6.0	6.5	2.5	7.0	7.0	8.0	3.0	7.5	9.0	9.0	herbicidal effect rating, MOOVA ([4]; Rate 0.0320 kg/ha): 9.0; herbicidal effect rating, MOOVA ([4]; Rate 0.0620 kg/ha): 9.0; herbicidal effect rating, MOOVA ([4]; Rate 0.1250 kg/ha): 9.0; herbicidal effect rating, MOOVA ([4]; Rate 0.2500 kg/ha): 9.0
CC#CCOC(=O)c1nsc2ccc(-n3c(=O)cc(C(F)(F)F)n(C)c3=O)cc12 [Example 384, 1,2-Benzisothiazole-3-carboxylic acid, 5-[3,6-dihydro-3-methyl-2,6-dioxo-4-(trifluoromethyl)-1(2H)-pyrimidinyl]-, 2-butynyl ester]	7.0	7.0	7.0	7.0	2.0	4.0	4.0	6.0	4.0	4.0	7.0	6.0	4.0	7.0	8.0	8.0	5.0	6.0	6.0	6.0	herbicidal effect rating, MOOVA ([4]; Rate 0.0320 kg/ha): 9.0; herbicidal effect rating, MOOVA ([4]; Rate 0.0620 kg/ha): 9.0; herbicidal effect rating, MOOVA ([4]; Rate 0.1250 kg/ha): 9.0; herbicidal effect rating, MOOVA ([4]; Rate 0.2500 kg/ha): 9.0
